Where “and” joins values, the source holds several entries; their conditions need not be identical. Equal values may be shown once. Read-outs that look alike come from different tables or passages of the source.
Legend:
[1] = Chemical stability of Compound 1-A at 25° C./60% RH and 40° C./75% RH over 6 months; type: physicochemical; details: for Increase of percent of water: over 6 months
Method: The container closure system for the study was a combination medicinal valve bag with a pharmaceutical laminated film over the pouch and desiccant silica gel between the two layers. […] Bags were then stored at 25° C./60% RH (relative humidity) and 40° C./75% RH (relative humidity). Organic purity, water content, ^1HNMR, DSC and Raman were measured at Time 0, Month 1, Month 2, Month 3 and Month 6.
The sample was dissolved in acetonitrile—water (90:10) (v/v). The gradient method is shown below.

[2] = Three-part study (Parts C, D, E) of Compound 1-A: overall safety/tolerability and pharmacokinetics; type: in vivo, human
Method: Part C was a randomized, double-blind, placebo-controlled MAD study divided into three cohorts. […] The dose escalation only proceeded following satisfactory review of the data.
HCV-infected patients were treatment-naïve with HCV RNA ≥5 log 10 IU/mL. […] Plasma drug levels were measured using LC-MS/MS.

[3] = Accelerated stability (40 ± 2° C./75 ± 5% RH) of Compound 1-A over 6 months; type: physicochemical
Method: Three conditions were tested: accelerated stability (40±2° C./[…]) over a 6-month time period, ambient stability (25±2° C./[…]) over a 9-month period, and stability under refrigerator conditions (5±3° C.) over a 9-month time period. The results for accelerated stability, ambient stability, and refrigerator conditions are shown in Table 23, Table 24, and Table 25, respectively.

HCV = details: cited from earlier work; for viral load reduction, individual: cirrhotic
GT1 HCV = assay: Single ascending dose study of Compound 1-A in GT1-HCV infected patients (Part B); type: in vivo, human; details: for Mean Max Reduction of HCV RNA from baseline: GT1b HCV patients
Method: Subjects in Part B received a single dose of Compound 1-A in the fasting state. Patients were confined to the clinic from Day −1 to Day 6.
Part B was initiated after the safety (through Day 5) and plasma pharmacokinetic (through 24 h) data review from Cohort 3a in Part A. Available safety data (through Day 5) and pharmacokinetic data (through 24 h) was reviewed for the first cohort in Part B (Cohort 1b) before enrolling subsequent Part B cohorts. Subsequent Part B cohorts were only dosed following review of available safety and pharmacokinetic data from the respective doses in Part A as well as available safety (through Day 5) from the prior Part B cohorts.
Patients infected with HCV were treatment-naïve, non-cirrhotic GT1-infected subjects with a viral load of ≥5 log10 IU/mL.
Baseline was defined as the mean of Day −1 and Day 1 (pre-dose). […] The mean maximum HCV RNA reduction 24 hours post-dose following a single 300 mg dose was 1.7 log10 IU/mL and this compares to a −2 log 10 IU/mL reduction after 1 day of 400 mg of sofosbuvir monotherapy in GT1a HCV-infected subjects. The mean maximum HCV RNA reduction 24 hours post-dose following a single 100 mg dose was 0.8 log10 IU/mL. The mean 10 maximum HCV RNA reduction was 2.2 log10 IU/mL following a single 400 mg dose.

[4] = 25° C., Month 1, compared with Day 0
[5] = 25° C., Month 2, compared with Day 0
[6] = 25° C., Month 3, compared with Day 0
[7] = 25° C., Month 6, compared with Day 0
[8] = 40° C., Month 1, compared with Day 0
[9] = 40° C., Month 2, compared with Day 0
[10] = 40° C., Month 3, compared with Day 0
[11] = 40° C., Month 6, compared with Day 0

CNc1nc(N)nc2c1ncn2[C@@H]1O[C@H](CO[P@@](=O)(N[C@@H](C)C(=O)OC(C)C)Oc2ccccc2)[C@@H](O)[C@@]1(C)F [Compound 1-A, isopropyl ((S)-(((2R,3R,4R,5R)-5-(2-amino-6-(methylamino)-9H-purin-9-yl)-4-fluoro-3-hydroxy-4-methyltetrahydrofuran-2-yl)methoxy) (phenoxy)phosphoryl)-L-alaninate hemisulfate]
Maximum Impurity Percent ([1]; 25° C., Day 0): 0.12% | Percent Purity ([1]; 25° C., Day 0): 99.82% | Percent Water ([1]; 25° C., Day 0): 1.2% | Maximum Impurity Percent ([1]; 25° C., Month 1): 0.12% | Percent Purity ([1]; 25° C., Month 1): 99.77% | Percent Water ([1]; 25° C., Month 1): 1.9% | DSC [1, 4]: The same | Raman [1, 4]: The same | ^1HNMR [1, 4]: The same | Maximum Impurity Percent ([1]; 25° C., Month 2): 0.12% | Percent Purity ([1]; 25° C., Month 2): 99.75% | Percent Water ([1]; 25° C., Month 2): 1.8% | DSC [1, 5]: The same | Raman [1, 5]: The same | ^1HNMR [1, 5]: The same | Maximum Impurity Percent ([1]; 25° C., Month 3): 0.12% | Percent Purity ([1]; 25° C., Month 3): 99.75% | Percent Water ([1]; 25° C., Month 3): 1.8% | DSC [1, 6]: The same | Raman [1, 6]: The same | ^1HNMR [1, 6]: The same | Maximum Impurity Percent ([1]; 25° C., Month 6): 0.13% | Percent Purity ([1]; 25° C., Month 6): 99.74% | Percent Water ([1]; 25° C., Month 6): 1.8% | DSC [1, 7]: The same | Raman [1, 7]: The same | ^1HNMR [1, 7]: The same | Increase of percent of water ([1]; 25° C.): approximately 0.6% | Maximum Impurity Percent ([1]; 40° C., Day 0): 0.12% | Percent Purity ([1]; 40° C., Day 0): 99.82% | Percent Water ([1]; 40° C., Day 0): 1.2% | Maximum Impurity Percent ([1]; 40° C., Month 1): 0.12% | Percent Purity ([1]; 40° C., Month 1): 99.71% | Percent Water ([1]; 40° C., Month 1): 2.0% | DSC [1, 8]: The same | Raman [1, 8]: The same | ^1HNMR [1, 8]: The same | Maximum Impurity Percent ([1]; 40° C., Month 2): 0.12% | Percent Purity ([1]; 40° C., Month 2): 99.63% | Percent Water ([1]; 40° C., Month 2): 1.9% | DSC [1, 9]: The same | Raman [1, 9]: The same | ^1HNMR [1, 9]: The same | Maximum Impurity Percent ([1]; 40° C., Month 3): 0.12% | Percent Purity ([1]; 40° C., Month 3): 99.58% | Percent Water ([1]; 40° C., Month 3): 1.9% | DSC [1, 10]: The same | Raman [1, 10]: The same | ^1HNMR [1, 10]: The same | Maximum Impurity Percent ([1]; 40° C., Month 6): 0.14% | Percent Purity ([1]; 40° C., Month 6): 99.30% | Percent Water ([1]; 40° C., Month 6): 1.9% | DSC [1, 11]: The same | Raman [1, 11]: The same | ^1HNMR [1, 11]: The same | Increase of percent of water ([1]; 40° C.): approximately 0.7% | impact of mild hepatic impairment on PK ([2]; based on plasma exposures): did not significantly impact | low-grade lipid abnormalities (cholesterol and triglyceride increase) ([2]; compared to placebo): higher incidence | tolerability ([2]; up to 600 mg salt form for seven days): well tolerated | Appearance ([3]; 0 month): White | Assay ([3]; 0 month): 98.8% | IR ([3]; 0 month): correspond | Related Substance 1 Any other single impurity ([3]; 0 month): 0.01% | Related Substance 1 Total Impurities ([3]; 0 month): 0.01% | Water ([3]; 0 month): 0.45% | Appearance ([3]; 1st month): White | Assay ([3]; 1st month): 101.5% | Related Substance 1 Any other single impurity ([3]; 1st month): 0.02% | Related Substance 1 Total Impurities ([3]; 1st month): 0.02% | Water ([3]; 1st month): 0.21% | Appearance ([3]; 3rd month): White | Assay ([3]; 3rd month): 99.6% | IR ([3]; 3rd month): correspond | Related Substance 1 Any other single impurity ([3]; 3rd month): 0.01% | Related Substance 1 Total Impurities ([3]; 3rd month): 0.02% | Water ([3]; 3rd month): 0.36% | Appearance ([3]; 6th month): White | Assay ([3]; 6th month): 99.5% | IR ([3]; 6th month): correspond | Related Substance 1 Any other single impurity ([3]; 6th month): 0.05% | Related Substance 1 Impurity F ([3]; 6th month): 0.01% | Related Substance 1 Total Impurities ([3]; 6th month): 0.08% | Related Substance 2 Impurity G ([3]; 6th month): no detection | Water ([3]; 6th month): 0.41% | Chemical stability (overall conclusion) ([3]; accelerated, ambient and refrigerator studies): very chemically stable | viral load reduction (HCV; cirrhotic participants): 4.6 log 10 IU/mL | viral load reduction, individual (HCV; GT1b, listed as bemnifosbuvir): 4.0 log 10 IU/mL (2×) and 4.5 log 10 IU/mL | viral load reduction, individual (HCV; GT2): 5.0 log 10 IU/mL | viral load reduction, individual (HCV; GT3, listed as bemnifosbuvir): 4.8 log 10 IU/mL and 5.2 log 10 IU/mL | viral load reduction (HCV; non-cirrhotic participants): 4.5 log 10 IU/mL | mean maximum HCV RNA reduction (GT1 HCV; 24 hours post-dose, single 100 mg dose): 0.8 log10 IU/mL | mean maximum HCV RNA reduction (GT1 HCV; 24 hours post-dose, single 300 mg dose, GT1b): 1.7 log10 IU/mL | Mean Max Reduction of HCV RNA from baseline (GT1 HCV; single dose, Compound 1-A equivalent of 92 mg Compound 1): 0.8 log10 IU/ml | Mean Max Reduction of HCV RNA from baseline (GT1 HCV; single dose, Compound 1-A equivalent of 275 mg Compound 1): 1.7 log10 IU/ml | Mean Max Reduction of HCV RNA from baseline (GT1 HCV; single dose, Compound 1-A equivalent of 368 mg Compound 1): 2.2 log10 IU/ml | Mean Max Reduction of HCV RNA from baseline (GT1 HCV; single dose, Compound 1-A equivalent of 550 mg Compound 1): 2.3 log10 IU/ml | intensity of adverse effects (GT1 HCV; Part B): mild to moderate | serious adverse events (GT1 HCV; Part B, GT1-HCV infected patients, single dose): No serious adverse events | mean maximum HCV RNA reduction (GT1 HCV; single 400 mg dose): 2.2 log10 IU/mL | individual maximum HCV RNA reductions (GT1 HCV; single 600 mg dose, non-cirrhotic GT1b): 2.1 log10 IU/mL and 2.3 log10 IU/mL and 2.6 log10 IU/mL | mean maximum HCV RNA reduction (GT1 HCV; single 600 mg dose, non-cirrhotic GT1b (n=3)): 2.3 log10 IU/mL | time within which the parent is metabolized (GT1 HCV; single oral dose of Compound 1-A, plasma): ≤ 8 h

— patent US20260091050A1, “ADVANTAGEOUS ANTI-HCV COMBINATION THERAPY” (Atea Pharmaceuticals, Inc., priority 2021, published 2026)
